ChEMBL document CHEMBL4364276, “Discovery of 4-phenyl-2H-benzo[b][1,4]oxazin-3(4H)-one derivatives as potent and orally active PI3K/mTOR dual inhibitors” (Eur J Med Chem, 2019)

Columns and labels:
[1] = molecular target: CDK6/cyclin D1 (Homo sapiens) (UniProt P24385+Q00534); test: Inhibition of human CDK6/cyclin-D1 at 100 nM using RB protein as substrate by [gamma-33P]-ATP assay; assay type: protein-complex assay
[2] = molecular target: Mitogen-activated protein kinase kinase kinase 3 (Homo sapiens) (UniProt Q99759); test: Inhibition of human MEKK3 at 100 nM using MBP as substrate by [gamma-33P]-ATP assay
[3] = molecular target: Mitogen-activated protein kinase kinase kinase 19 (Homo sapiens) (UniProt Q56UN5); test: Inhibition of human YSK4 at 100 nM using MBP as substrate by [gamma-33P]-ATP assay
[4] = molecular target: Serine/threonine-protein kinase LATS2 (Homo sapiens) (UniProt Q9NRM7); test: Inhibition of human LATS2 at 100 nM using KKRNRRLSVA as substrate by [gamma-33P]-ATP assay
Chain of Serine/threonine-protein kinase LATS2 (Homo sapiens) (Q9NRM7 whole entry): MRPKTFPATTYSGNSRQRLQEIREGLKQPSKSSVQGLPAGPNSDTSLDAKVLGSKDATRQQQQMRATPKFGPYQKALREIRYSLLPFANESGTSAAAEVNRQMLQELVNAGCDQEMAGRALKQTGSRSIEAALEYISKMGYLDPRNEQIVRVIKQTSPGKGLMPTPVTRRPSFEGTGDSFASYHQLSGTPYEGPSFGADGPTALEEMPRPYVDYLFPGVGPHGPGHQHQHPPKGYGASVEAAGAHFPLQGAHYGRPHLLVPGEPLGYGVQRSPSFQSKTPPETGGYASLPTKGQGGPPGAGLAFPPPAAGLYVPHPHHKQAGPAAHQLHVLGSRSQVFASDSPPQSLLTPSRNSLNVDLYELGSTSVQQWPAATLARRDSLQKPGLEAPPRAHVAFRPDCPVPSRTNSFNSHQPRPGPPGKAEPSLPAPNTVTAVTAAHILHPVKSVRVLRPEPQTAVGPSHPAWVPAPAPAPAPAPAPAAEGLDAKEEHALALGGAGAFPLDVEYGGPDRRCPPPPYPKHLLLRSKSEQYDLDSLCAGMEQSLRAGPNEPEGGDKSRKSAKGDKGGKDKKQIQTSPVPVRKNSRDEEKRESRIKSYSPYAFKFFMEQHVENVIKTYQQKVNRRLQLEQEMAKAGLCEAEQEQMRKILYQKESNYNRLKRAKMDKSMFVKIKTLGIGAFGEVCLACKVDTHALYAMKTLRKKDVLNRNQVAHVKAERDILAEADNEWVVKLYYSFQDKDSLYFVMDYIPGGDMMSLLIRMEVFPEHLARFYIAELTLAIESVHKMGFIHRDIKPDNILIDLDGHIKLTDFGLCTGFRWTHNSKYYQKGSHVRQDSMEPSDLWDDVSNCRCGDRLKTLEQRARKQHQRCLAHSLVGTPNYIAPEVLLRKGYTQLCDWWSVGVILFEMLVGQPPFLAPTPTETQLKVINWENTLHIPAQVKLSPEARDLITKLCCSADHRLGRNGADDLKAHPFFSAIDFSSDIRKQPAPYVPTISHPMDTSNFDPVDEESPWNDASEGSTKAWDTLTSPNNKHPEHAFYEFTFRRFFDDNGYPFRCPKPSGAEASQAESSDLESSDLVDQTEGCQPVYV

[5] = molecular target: Tyrosine-protein kinase Fgr (Homo sapiens) (UniProt P09769); test: Inhibition of human FGR at 100 nM using poly[Glu:Tyr] (4:1) as substrate by [gamma-33P]-ATP assay
[6] = molecular target: Serine/threonine-protein kinase MARK2 (Homo sapiens) (UniProt Q7KZI7); test: Inhibition of human MARK2 isoform 4 at 100 nM using KKKVSRSGLYRSPSMPENLNRPR as substrate by [gamma-33P]-ATP assay
[7] = molecular target: Ephrin type-B receptor 1 (Homo sapiens) (UniProt P54762); test: Inhibition of human EPHB1 at 100 nM using poly[Glu:Tyr] (4:1) as substrate by [gamma-33P]-ATP assay
[8] = molecular target: Serine/threonine-protein kinase Sgk1 (Homo sapiens) (UniProt O00141); test: Inhibition of human SGK1 at 100 nM using KGSGSGRPRTSSFAEG as substrate by [gamma-33P]-ATP assay
[9] = molecular target: Mitogen-activated protein kinase kinase kinase 8 (Homo sapiens) (UniProt P41279); test: Inhibition of human COT1 at 100 nM using MEK1 as substrate by [gamma-33P]-ATP assay
[10] = molecular target: Vascular endothelial growth factor receptor 3 (Homo sapiens) (UniProt P35916); test: Inhibition of human FLT4 at 100 nM using poly[Glu:Tyr] (4:1) as substrate by [gamma-33P]-ATP assay
[11] = molecular target: Bone morphogenetic protein receptor type-1A (Homo sapiens) (UniProt P36894); test: Inhibition of human ALK3 at 100 nM using casein as substrate by [gamma-33P]-ATP assay
[12] = molecular target: Serine/threonine-protein kinase N2 (Homo sapiens) (UniProt Q16513); test: Inhibition of human PKN2 at 100 nM using KKLNRTLSVA as substrate by [gamma-33P]-ATP assay
[13] = molecular target: Serine/threonine-protein kinase/endoribonuclease IRE1 (Homo sapiens) (UniProt O75460); test: Inhibition of human ERN1 at 100 nM using MBP as substrate by [gamma-33P]-ATP assay
[14] = molecular target: Serine/threonine-protein kinase PAK 4 (Homo sapiens) (UniProt O96013); test: Inhibition of human PAK4 at 100 nM using RRRLSFAEPG as substrate by [gamma-33P]-ATP assay
[15] = molecular target: Tyrosine-protein kinase BTK (Homo sapiens) (UniProt Q06187); test: Inhibition of human BTK at 100 nM using KVEKIGEGTYGVVYK as substrate by [gamma-33P]-ATP assay
Chain of Tyrosine-protein kinase BTK (Homo sapiens) (Q06187 whole entry): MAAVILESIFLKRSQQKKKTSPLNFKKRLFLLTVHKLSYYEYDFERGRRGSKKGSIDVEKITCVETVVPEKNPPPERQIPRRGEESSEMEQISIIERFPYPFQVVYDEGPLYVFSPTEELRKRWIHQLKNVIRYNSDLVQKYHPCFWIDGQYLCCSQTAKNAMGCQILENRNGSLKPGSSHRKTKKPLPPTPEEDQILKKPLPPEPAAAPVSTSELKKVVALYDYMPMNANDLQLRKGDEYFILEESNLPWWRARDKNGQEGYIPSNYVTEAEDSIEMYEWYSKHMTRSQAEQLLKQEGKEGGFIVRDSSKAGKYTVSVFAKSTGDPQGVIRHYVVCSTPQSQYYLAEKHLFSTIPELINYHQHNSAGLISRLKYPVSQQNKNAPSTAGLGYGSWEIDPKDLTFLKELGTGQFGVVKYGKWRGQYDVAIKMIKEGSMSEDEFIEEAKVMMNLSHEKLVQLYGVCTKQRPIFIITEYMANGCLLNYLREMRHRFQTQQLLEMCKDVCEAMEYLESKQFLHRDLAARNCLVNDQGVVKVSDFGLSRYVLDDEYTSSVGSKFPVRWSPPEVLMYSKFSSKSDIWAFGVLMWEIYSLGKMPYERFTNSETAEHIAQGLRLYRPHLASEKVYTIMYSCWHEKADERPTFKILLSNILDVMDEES

HCT-116 = test: Antiproliferative activity against human HCT116 cells assessed as reduction in cell viability incubated for 72 hrs by MTT assay; assay type: functional, cell-based; conditions: HCT-116, 72 h
[16] = molecular target: Activin receptor type-1 (Homo sapiens) (UniProt Q04771); test: Inhibition of human ALK2 at 100 nM using casein as substrate by [gamma-33P]-ATP assay
Chain of Activin receptor type-1 (Homo sapiens) (Q04771 whole entry): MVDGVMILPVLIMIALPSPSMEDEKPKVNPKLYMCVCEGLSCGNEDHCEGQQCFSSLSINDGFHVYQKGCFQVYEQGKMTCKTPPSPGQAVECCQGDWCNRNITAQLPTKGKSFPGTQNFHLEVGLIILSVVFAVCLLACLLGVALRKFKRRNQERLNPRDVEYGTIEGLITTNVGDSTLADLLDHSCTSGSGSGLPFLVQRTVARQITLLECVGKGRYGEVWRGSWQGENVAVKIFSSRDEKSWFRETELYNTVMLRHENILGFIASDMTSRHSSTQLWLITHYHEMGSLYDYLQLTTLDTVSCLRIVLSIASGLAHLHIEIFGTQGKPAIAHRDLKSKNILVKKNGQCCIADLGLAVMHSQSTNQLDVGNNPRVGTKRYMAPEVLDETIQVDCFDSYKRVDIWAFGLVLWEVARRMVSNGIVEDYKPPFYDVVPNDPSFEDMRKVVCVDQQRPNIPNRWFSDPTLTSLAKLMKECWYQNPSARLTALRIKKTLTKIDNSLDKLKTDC

[17] = molecular target: Serine/threonine-protein kinase TBK1 (Homo sapiens) (UniProt Q9UHD2); test: Inhibition of human TBK1 at 100 nM using KRRRAL[pS]VASLPGL as substrate by [gamma-33P]-ATP assay
[18] = molecular target: Ribosomal protein S6 kinase alpha-3 (Homo sapiens) (UniProt P51812); test: Inhibition of human RSK2 at 100 nM using KKLNRTLSVA as substrate by [gamma-33P]-ATP assay
Chain of Ribosomal protein S6 kinase alpha-3 (Homo sapiens) (P51812 whole entry, the tested form may be a part): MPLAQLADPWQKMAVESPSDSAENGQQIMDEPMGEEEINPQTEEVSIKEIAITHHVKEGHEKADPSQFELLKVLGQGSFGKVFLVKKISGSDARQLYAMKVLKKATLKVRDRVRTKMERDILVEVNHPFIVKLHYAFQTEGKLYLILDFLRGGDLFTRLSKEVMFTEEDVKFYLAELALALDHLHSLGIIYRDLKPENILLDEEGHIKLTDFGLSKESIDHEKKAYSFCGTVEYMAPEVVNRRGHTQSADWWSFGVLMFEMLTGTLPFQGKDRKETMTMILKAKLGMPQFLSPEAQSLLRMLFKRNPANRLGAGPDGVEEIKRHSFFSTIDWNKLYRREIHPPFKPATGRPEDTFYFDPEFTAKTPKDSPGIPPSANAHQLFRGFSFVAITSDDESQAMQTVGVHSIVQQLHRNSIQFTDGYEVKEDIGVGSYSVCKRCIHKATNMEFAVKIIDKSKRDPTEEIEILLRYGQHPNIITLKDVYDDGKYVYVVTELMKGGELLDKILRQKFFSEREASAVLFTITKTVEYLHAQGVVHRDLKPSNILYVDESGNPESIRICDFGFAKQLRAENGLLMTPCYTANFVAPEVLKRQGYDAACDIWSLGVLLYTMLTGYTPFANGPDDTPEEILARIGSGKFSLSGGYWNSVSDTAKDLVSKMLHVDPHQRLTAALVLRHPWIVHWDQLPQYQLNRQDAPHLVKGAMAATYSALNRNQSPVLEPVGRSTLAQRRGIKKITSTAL

[19] = molecular target: PAS domain-containing serine/threonine-protein kinase (Homo sapiens) (UniProt Q96RG2); test: Inhibition of human PASK at 100 nM using KKLNRTLSFAEPG as substrate by [gamma-33P]-ATP assay
[20] = molecular target: Serine/threonine-protein kinase STK11 (Homo sapiens) (UniProt Q15831); test: Inhibition of human LKB1 at 100 nM using LSNLYHQGKFLQTFCGSPLYRRR as substrate by [gamma-33P]-ATP assay
[21] = molecular target: Tyrosine-protein kinase Yes (Homo sapiens) (UniProt P07947); test: Inhibition of human YES at 100 nM using poly[Glu:Tyr] (4:1) as substrate by [gamma-33P]-ATP assay
[22] = molecular target: Serine/threonine-protein kinase PLK4 (Homo sapiens) (UniProt O00444); test: Inhibition of human PLK4 at 100 nM using casein as substrate by [gamma-33P]-ATP assay
Homo sapiens = species: Homo sapiens; test: Inhibition of human AMPK (A2/B1/G1) at 100 nM using HMRSAMSGLHLVKRR as substrate by [gamma-33P]-ATP assay
[23] = molecular target: Transient receptor potential cation channel subfamily M member 7 (Homo sapiens) (UniProt Q96QT4); test: Inhibition of human TRPM7 at 100 nM using MBP as substrate by [gamma-33P]-ATP assay
[24] = molecular target: Tyrosine-protein kinase Fer (Homo sapiens) (UniProt P16591); test: Inhibition of human FER at 100 nM using poly[Glu:Tyr] (4:1) as substrate by [gamma-33P]-ATP assay
Chain of Tyrosine-protein kinase Fer (Homo sapiens) (P16591 whole entry, looked up): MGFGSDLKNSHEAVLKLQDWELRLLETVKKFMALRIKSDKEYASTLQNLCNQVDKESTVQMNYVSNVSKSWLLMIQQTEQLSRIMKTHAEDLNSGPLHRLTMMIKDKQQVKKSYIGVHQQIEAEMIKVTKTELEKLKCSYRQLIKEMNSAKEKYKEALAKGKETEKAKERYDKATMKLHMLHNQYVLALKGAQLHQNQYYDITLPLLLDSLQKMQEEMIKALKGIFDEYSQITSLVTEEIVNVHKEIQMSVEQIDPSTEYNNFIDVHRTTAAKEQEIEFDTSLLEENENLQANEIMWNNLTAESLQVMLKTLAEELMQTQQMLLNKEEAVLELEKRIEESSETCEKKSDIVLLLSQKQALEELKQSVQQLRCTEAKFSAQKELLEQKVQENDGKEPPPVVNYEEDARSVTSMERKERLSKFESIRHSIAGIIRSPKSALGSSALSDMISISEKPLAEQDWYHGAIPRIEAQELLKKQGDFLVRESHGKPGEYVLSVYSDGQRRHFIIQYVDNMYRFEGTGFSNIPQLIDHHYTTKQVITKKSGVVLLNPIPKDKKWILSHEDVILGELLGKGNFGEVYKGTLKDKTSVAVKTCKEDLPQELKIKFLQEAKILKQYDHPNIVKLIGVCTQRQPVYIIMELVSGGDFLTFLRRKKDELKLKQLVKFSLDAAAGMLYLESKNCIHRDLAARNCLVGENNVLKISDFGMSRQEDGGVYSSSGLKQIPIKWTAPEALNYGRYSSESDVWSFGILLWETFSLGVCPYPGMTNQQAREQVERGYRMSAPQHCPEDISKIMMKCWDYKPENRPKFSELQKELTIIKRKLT

[25] = molecular target: Serine/threonine-protein kinase N3 (Homo sapiens) (UniProt Q6P5Z2); test: Inhibition of human PKN3 at 100 nM using KKLNRTLSVA as substrate by [gamma-33P]-ATP assay
Chain of Serine/threonine-protein kinase N3 (Homo sapiens) (Q6P5Z2 whole entry, looked up): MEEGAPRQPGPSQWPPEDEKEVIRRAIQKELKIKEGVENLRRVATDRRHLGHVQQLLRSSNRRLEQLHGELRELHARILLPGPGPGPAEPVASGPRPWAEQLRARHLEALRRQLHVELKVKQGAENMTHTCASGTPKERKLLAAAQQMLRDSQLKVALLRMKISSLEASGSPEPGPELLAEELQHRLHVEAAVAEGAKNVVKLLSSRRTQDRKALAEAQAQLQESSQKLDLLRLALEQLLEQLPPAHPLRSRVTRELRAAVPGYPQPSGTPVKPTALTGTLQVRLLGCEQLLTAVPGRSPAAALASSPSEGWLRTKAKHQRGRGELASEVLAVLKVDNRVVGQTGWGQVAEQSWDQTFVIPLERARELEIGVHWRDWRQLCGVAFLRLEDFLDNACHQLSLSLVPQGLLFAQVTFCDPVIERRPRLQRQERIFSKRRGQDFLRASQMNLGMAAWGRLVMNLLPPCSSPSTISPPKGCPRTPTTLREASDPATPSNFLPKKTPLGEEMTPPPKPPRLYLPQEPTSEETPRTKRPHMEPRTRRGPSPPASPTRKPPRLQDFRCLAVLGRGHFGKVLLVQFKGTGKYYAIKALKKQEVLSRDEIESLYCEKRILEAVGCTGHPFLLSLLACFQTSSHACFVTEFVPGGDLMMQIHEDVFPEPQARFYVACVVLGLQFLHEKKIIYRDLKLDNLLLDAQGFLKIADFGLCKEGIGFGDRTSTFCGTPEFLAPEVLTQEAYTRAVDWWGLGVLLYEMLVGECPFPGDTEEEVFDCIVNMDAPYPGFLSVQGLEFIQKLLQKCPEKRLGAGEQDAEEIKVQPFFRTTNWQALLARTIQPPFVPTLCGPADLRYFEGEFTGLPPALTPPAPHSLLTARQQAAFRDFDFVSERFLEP

[26] = molecular target: Serine/threonine-protein kinase DCLK1 (Homo sapiens) (UniProt O15075); test: Inhibition of human DCAMKL1 at 100 nM using KKLNRTLSFAEPG as substrate by [gamma-33P]-ATP assay
[27] = molecular target: Mitogen-activated protein kinase 12 (Homo sapiens) (UniProt P53778); test: Inhibition of human p38gamma at 100 nM using MBP as substrate by [gamma-33P]-ATP assay
Chain of Mitogen-activated protein kinase 12 (Homo sapiens) (P53778 whole entry): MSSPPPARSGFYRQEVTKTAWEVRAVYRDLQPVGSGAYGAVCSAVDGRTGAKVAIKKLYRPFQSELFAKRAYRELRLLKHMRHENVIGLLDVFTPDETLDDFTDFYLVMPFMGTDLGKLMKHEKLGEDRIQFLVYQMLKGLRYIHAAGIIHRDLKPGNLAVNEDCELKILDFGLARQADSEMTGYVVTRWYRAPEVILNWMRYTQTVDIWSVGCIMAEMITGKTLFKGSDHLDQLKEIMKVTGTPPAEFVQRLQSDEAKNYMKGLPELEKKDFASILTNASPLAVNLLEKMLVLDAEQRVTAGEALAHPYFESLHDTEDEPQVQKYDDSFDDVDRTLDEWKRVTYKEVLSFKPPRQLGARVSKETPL

[28] = molecular target: Serine/threonine-protein kinase PLK2 (Homo sapiens) (UniProt Q9NYY3); test: Inhibition of human PLK2 at 100 nM using casein as substrate by [gamma-33P]-ATP assay
[29] = molecular target: Cyclin-dependent kinase 5/CDK5 activator 1 (Homo sapiens) (UniProt Q00535+Q15078); test: Inhibition of human CDK5/p25 at 100 nM using histone H1 as substrate by [gamma-33P]-ATP assay; assay type: protein-complex assay

Question: How did the inhibition [1] turn out when `COc1ccc(N2C(=O)COc3ccc(-c4cnc(OC)c(NS(=O)(=O)c5ccc(F)cc5)c4)cc32)cc1` was run?
Answer: 9.71%

Question: And the inhibition [2]?
Answer: 2.85%

Question: What about the inhibition [3] of the same molecule?
Answer: 3.44%

Question: And the inhibition [4]?
Answer: 10.9%

Question: And the inhibition [5]?
Answer: 5.02%

Question: What about the inhibition [6] of the same molecule?
Answer: 1.93%

Question: What about the inhibition [7] of the same molecule?
Answer: 8.67%

Question: And the inhibition [8]?
Answer: -1.5%

Question: What about the inhibition [9] of the same molecule?
Answer: 13%

Question: And the inhibition [10]?
Answer: -7.65%

Question: What about the inhibition [11] of the same molecule?
Answer: 3.37%

Question: What about the inhibition [12] of the same molecule?
Answer: 6.6%

Question: And the inhibition [13]?
Answer: -2.68%

Question: What about the inhibition [14] of the same molecule?
Answer: 7.74%

Question: And the inhibition [15]?
Answer: 14.8%

Question: And the IC50 (HCT-116)?
Answer: 13.4 µM

Question: And the inhibition [16]?
Answer: 12.7%

Question: What about the inhibition [17] of the same molecule?
Answer: 5.37%

Question: And the inhibition [18]?
Answer: 19.6%

Question: And the inhibition [19]?
Answer: -2.91%

Question: And the inhibition [20]?
Answer: -3.12%

Question: What about the inhibition [21] of the same molecule?
Answer: 3.18%

Question: And the inhibition [22]?
Answer: -1.06%

Question: What about the inhibition (Homo sapiens) of the same molecule?
Answer: -3.88%

Question: What about the inhibition [23] of the same molecule?
Answer: 1.61%

Question: And the inhibition [24]?
Answer: 29.8%

Question: And the inhibition [25]?
Answer: -1.97%

Question: What about the inhibition [26] of the same molecule?
Answer: -5.81%

Question: What about the inhibition [27] of the same molecule?
Answer: -3.86%

Question: What about the inhibition [28] of the same molecule?
Answer: 4.64%

Question: And the inhibition [29]?
Answer: 9.26%
